The values that follow come from EP4635944A1, “2-AZABICYCLO[3.1.1]HEPTANE COMPOUND” (Daiichi Sankyo Company, Limited, priority 2022, dated 2024).

In general, EC50 refers to the concentration that produces a half-maximal response.

Structures are written as SMILES.

Series [1] can be described thus: Evaluation of ERM production (GSH adduct detection in human liver microsomes). In kind it is in vitro ADME. Conditions: test compound 500 µM, human liver microsomes 2 mg/mL, GSH/SI-GSH, 37°C for 60 minutes; negative = no metabolite GSH adduct pair peak. As to the method:
Evaluation of ERM production from OX2R agonist
The test compound (final concentration was 500 µM, dissolved in DMSO/acetonitrile = 1/9), pooled human liver microsomes (final concentration was 2 mg/mL), L-glutathione reduced (GSH, final concentration was 0.5 mM), potassium phosphate buffer (pH 7.4, final concentration was 100 mM), and stable isotope labeled GSH (SI-GSH, final concentration was 0.5 mM) were admixed and preincubated at 37°C for 3 minutes. Thereafter, a mixed solution of glucose-6-phosphate (final concentration was 25 mM), β-nicotinamide adenine dinucleotide phosphate (final concentration was 0.25 mM), glucose-6-phosphate dehydrogenase (final concentration was 2 U/mL), and magnesium chloride (final concentration was 10 mM) was added, and incubation was performed at 37°C for 60 minutes. After the incubation, the reaction was stopped by adding a 2-fold volume of acetonitrile. A portion of the supernatant after centrifugation (about 1200 × g, 4°C, 15 minutes) was injected into a liquid chromatograph quadrupole time-of-flight mass spectrometer (Q-Tof) for analysis. The mass number of metabolites, GSH adduct and SI-GSH adduct, predicted from the chemical structural formula of the test compound was calculated, and the presence of the corresponding peaks in the measurement sample was checked. Peaks with the same retention time and approximately equal peak area of the detected peaks of the metabolites, GSH adduct and SI-GSH adduct, were extracted as pair peaks. The presence of a pair peak determined to be a metabolite GSH adduct was considered positive for ERM production potential, whereas the absence of such a peak was considered negative for ERM production potential.
A general note: Microsomes from liver hold many membrane-bound enzymes, among them those of drug oxidation.

In series [2] the target is T1, human OX2R (Homo sapiens, UniProt O43614).
T1 construct: host or cells: CHO-K1 (Chinese Hamster Ovary K1)
T1 sequence (O43614 1-444): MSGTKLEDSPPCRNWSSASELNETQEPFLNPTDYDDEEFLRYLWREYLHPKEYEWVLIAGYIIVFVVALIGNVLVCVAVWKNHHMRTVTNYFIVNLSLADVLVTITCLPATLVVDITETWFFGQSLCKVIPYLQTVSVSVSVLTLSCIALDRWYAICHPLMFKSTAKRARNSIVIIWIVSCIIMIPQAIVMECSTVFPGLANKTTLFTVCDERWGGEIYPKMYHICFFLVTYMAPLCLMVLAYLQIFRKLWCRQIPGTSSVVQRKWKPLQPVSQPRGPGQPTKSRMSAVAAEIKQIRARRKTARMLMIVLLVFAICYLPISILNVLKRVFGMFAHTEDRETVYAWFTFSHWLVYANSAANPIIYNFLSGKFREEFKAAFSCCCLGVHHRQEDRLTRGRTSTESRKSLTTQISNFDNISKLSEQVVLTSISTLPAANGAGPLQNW
As to the kind of experiment: Evaluation of OX2R agonist activity (intracellular calcium, CHO-K1 cells with forced expression of human OX2R). To be noted: CHO-K1 cells expressing human OX2R; 100% = 5 µM of the reference compound; read-out: hOX2R EC50. In kind it is cell-based. In a few lines: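 Cells seeded 7500/well, cultured 24 h, loaded with Fluo 4-AM (2.5 µg/mL final) plus probenecid for 30 min. Calcium response read as 480/540 nm excitation ratio; max–min signal 5–7 s after compound addition, normalized to buffer (0%) and 5 µM reference agonist (100%). EC50 from concentration series; 0.5% DMSO final.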
(In general: A change in cytosolic calcium serves as a functional read-out for many receptors and channels.)

Series [3] can be described thus: Evaluation of metabolic stability in human liver microsomes. In kind it is in vitro ADME. Conditions: test compound 1 µM, human liver microsomes 0.5 mg/mL, 30 minutes at 37°C. The protocol: Evaluation of metabolic stability of OX2R agonist
The test compound (final concentration was 1 µM, dissolved in DMSO/acetonitrile = 1/99), pooled human liver microsomes (final concentration was 0.5 mg/mL), and sodium phosphate buffer (pH 7.4, final concentration was 100 mM) were admixed and preincubated at 37°C for 15 minutes. Thereafter, a mixed solution of glucose-6-phosphate (final concentration was 10 mM), glucose-6-phosphate dehydrogenase (final concentration was 1 U/mL), and magnesium chloride (final concentration was 3.3 mM) was added and a certain amount of the mixture was collected. Then, an acetonitrile/methanol mixed solution (75/25, v/v) containing a 4.5-fold volume of internal standard substances (final concentrations: phenacetin: 1 ng/mL, niflumic acid: 15 ng/mL, furosemide: 20 ng/mL) was added to stop the reaction (0 min sample). Subsequently, β-nicotinamide adenine dinucleotide phosphate (final concentration was 1 mM) was added, and after 30 minutes of incubation at 37°C, a certain amount of the mixture was collected, to which an acetonitrile/methanol mixed solution (75/25, v/v) containing a 4.5-fold volume of the internal standard substances was added to stop the reaction (30 min sample). For both samples, a portion of the supernatant after centrifugation (about 1200 × g, 4°C, 15 minutes) was injected into a liquid chromatograph tandem quadrupole mass spectrometer (LC-MS/MS) for analysis. The metabolic stability was evaluated by comparing the test compound/internal standard substance ratio of the 30 min sample with the 0 min sample and calculating the residual ratio of the test compound. […]

`CS(=O)(=O)N[C@H]1C2CC(C2)N(C(=O)C2(O)CCC2)[C@H]1Cc1cccc(-c2ccccc2)c1F` [Example 62, N-{(3S,4S)-3-[(2-Fluoro[biphenyl]-3-yl)methyl]-2-[(1-hydroxycyclobutyl)carbonyl]-2-azabicyclo[3.1.1]heptan-4-yl}methanesulfonamide]: the ERM production potential entry in series [1] is on record as “negative”. Also, the EC50 in series [2] stood at 14 nM.

As for `C[C@@H](O)C(=O)N1C2CC(C2)[C@H](NS(C)(=O)=O)[C@@H]1Cc1cccc(-c2ccn(C)n2)c1F` [Example 32, N-{(3S,4S)-3-[2-Fluoro-3-(1-methyl-1H-pyrazol-3-yl)benzyl]-2-[(2R)-2-hydroxypropanoyl]-2-azabicyclo[3.1.1]heptan-4-yl}methanesulfonamide], in series [1], the ERM production potential result is on record as “negative”. Also, the EC50 in series [2] was 535 nM.

Regarding `[2H]C([2H])([2H])[C@@]([2H])(O)C(=O)N1C2CC(C2)[C@H](NS(=O)(=O)CC)[C@@H]1Cc1cccc(-c2ccccc2)c1F` [Example 94, N-{(3S,4S)-3-[(2-Fluoro[biphenyl]-3-yl)methyl]-2-[(2R)-2-hydroxy(^2H4)propanoyl]-2-azabicyclo[3.1.1]heptan-4-yl}ethanesulfonamide], the ERM production potential result in series [1] is reported as “negative”. Further, the EC50 in series [2] was 22 nM.

Consider `[2H]C([2H])([2H])C([2H])(O)C(=O)N1C2CC(C2)C(NS(=O)(=O)CC)C1Cc1cc(F)cc(-c2ccccc2)c1F` (single isomer, unassigned) [Example 92, N-{3-[(2,5-Difluoro[biphenyl]-3-yl)methyl]-2-[2-hydroxy(^2H4)propanoyl]-2-azabicyclo[3.1.1]heptan-4-yl}ethanesulfonamide], for which the ERM production potential entry in series [1] is on record as “negative”. Also, the EC50 in series [2] was found to be 20 nM.

Consider `CC(C)(O)C(=O)N1C2CC(C2)C(NS(C)(=O)=O)C1Cc1cc(F)cc(-c2cccc(Cl)c2)c1F` (single isomer, unassigned) [Example 67, N-[(3S,4S)-3-[(3'-Chloro-2,5-difluoro[biphenyl]-3-yl)methyl]-2-(2-hydroxy-2-methylpropanoyl)-2-azabicyclo[3.1.1]heptan-4-yl]methanesulfonamide or N-[(3R,4R)-3-[(3'-chloro-2,5-difluoro[biphenyl]-3-yl)methyl]-2-(2-hydroxy-2-methylpropanoyl)-2-azabicyclo[3.1.1]heptan-4-yl]methanesulfonamide], for which the ERM production potential entry in series [1] is recorded as “negative”. Besides, the EC50 in series [2] was found to be 70 nM.

For the compound `CC(C)(O)C(=O)N1C2CC(C2)[C@H](NS(C)(=O)=O)[C@@H]1Cc1cccc(-c2ccccc2)c1F` [Example 10, N-[(3S,4S)-3-[(2-Fluoro[biphenyl]-3-yl)methyl]-2-(2-hydroxy-2-methylpropanoyl)-2-azabicyclo[3.1.1]heptan-4-yl]methanesulfonamide], the ERM production potential result in series [1] is “negative”. For the same compound, in series [2], the EC50 is 297 nM.

In the case of `CC(C)(O)C(=O)N1C2CC(C2)C(NS(C)(=O)=O)C1Cc1cc(F)cc(-c2ccccc2)c1F` (single isomer, unassigned) [Example 59, N-[(3S,4S)-3-[(2,5-Difluoro[biphenyl]-3-yl)methyl]-2-(2-hydroxy-2-methylpropanoyl)-2-azabicyclo[3.1.1]heptan-4-yl]methanesulfonamide or N-[(3R,4R)-3-[(2,5-difluoro[biphenyl]-3-yl)methyl]-2-(2-hydroxy-2-methylpropanoyl)-2-azabicyclo[3.1.1]heptan-4-yl]methanesulfonamide], the ERM production potential entry in series [1] is given as “negative”. In series [2], the 50% effective concentration (EC50) amounted to 88 nM.

Take `C[C@@H](O)C(=O)N1C2CC(F)(C2)[C@H](NS(C)(=O)=O)[C@@H]1Cc1cc(F)cc(-c2ccccc2)c1F` [Example 63, N-{(3S,4R)-3-[(2,5-Difluoro[biphenyl]-3-yl)methyl]-5-fluoro-2-[(2R)-2-hydroxypropanoyl]-2-azabicyclo[3.1.1]heptan-4-yl}methanesulfonamide]: in series [3], the “Human metabolic stability Residual ratio (%)” value is recorded as 38%. The EC50 in series [2] was determined as 22 nM.
